Paper PMC10541411 (Nature Communications, 2023)

What was measured:
[1] = tested on: 53BP1^FFR-CC IRIF in U2OS cells; assay: 53BP1FFR ionizing radiation-induced foci (IRIF) formation, immunofluorescence, CC mutant; format: cell-based, Homo Sapiens; conditions: 1 Gy X-ray, different concentrations of UNC3474
Text: (§1) The foci-forming region (FFR; residues 1220–1711) of wild-type 53BP1 and mutants E1549P/D1550N (53BP1^FFR-PN) and E1549C/E1567C (53BP1^FFR-CC) were inserted into the retroviral vector POZ. The primers used to introduce the E1549P/D1550N mutations are: […] (forward) and […] (reverse). The primers used to introduce the E1549C/E1567C mutations are: […] (forward) and […] (reverse). The 53BP1^FFR constructs were stably expressed at a moderate level in U2OS cells. To probe the effect of UNC3474 on 53BP1^FFR IRIF formation, U2OS cells were grown on glass coverslips, pre-incubated for 1 h with various concentrations of UNC3474 and exposed to 1 Gy of X-ray radiation. After 1 h, the cells were fixed in 4% formaldehyde in PBS for 15 min at room temperature and blocked and permeabilized for 1 h in PBS containing 0.3% Triton X-100, 1% BSA, 10% fetal bovine serum. […]
(§2) Cell samples were subjected to z-stack scanning with a total depth of 5 μm to comprehensively capture all 53BP1^FFR and γH2A.X IRIF within the cell nuclei, which were fluorescently labeled with DAPI. […] To assess the quantification of 53BP1^FFR and γH2A.X foci per nuclei, a customized CellProfiler (version 3.0)[68] pipeline was employed. […]

53BP1^TT WT = 53BP1^TT WT (Homo sapiens, UniProt Q12888); assay: Small angle X-ray scattering (SAXS); design: residues 1484-1603; made in house; host or cells: E. coli
Chain of 53BP1^TT WT (Q12888 1484-1603): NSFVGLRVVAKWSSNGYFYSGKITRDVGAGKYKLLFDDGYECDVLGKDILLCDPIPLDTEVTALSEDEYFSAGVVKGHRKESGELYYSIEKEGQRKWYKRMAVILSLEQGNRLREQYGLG
Experimental: SAXS measurements were performed at 10 °C and different concentrations (0.67, 1.33 and 2 mg/mL) of 53BP1^TT WT, free and in complex with 10-fold molar excess of UNC3474 or UNC1118, in 25 mM sodium phosphate, pH 7.5, 15 mM NaCl, as well as on control samples containing only the small molecule in the same buffer. SAXS data were collected at the Lawrence Berkeley National Laboratory SYBILS beamline 12.3.1 and analyzed using programs from the SAXS data analysis software ATSAS (version 2.4.2)[63],[64] including PRIMUS, GNOM, AUTOPOROD, GASBOR and CRYSOL. PRIMUS (version 3.0) was used for initial data processing. Radii of gyration (Rg) were calculated using the Guinier approximation. Distance distribution functions P(r) and maximum particle dimensions were computed using GNOM. Molecular volumes and weights were estimated using AUTOPOROD. Ab initio reconstructions of molecular envelopes were done using GASBOR 2.3i. CRYSOL was used to back calculate the scattering curves and determine the goodness of fit.
Supplementary Table 1 | SAXS reporting data.
Organism Homo Sapiens Homo Sapiens Homo Sapiens
Source E. coli E. coli E. coli
Solvent composition 25 mM sodium 25 mM sodium 25 mM sodium
phosphate, pH 7.5, 15 phosphate, pH 7.5, 15 phosphate, pH 7.5, 15
SAXS data collection parameters
Source SIBYLS beamline 12.3.1 at the Advanced Light Source […]
Beam geometry (size, sample-to-detector distance) 0.1 x 0.1 mm, 1.5 m
Method for monitoring radiation damage Varied exposure lengths were compared against one another
Exposure time, number of exposures 0.5 s, 1 s, 2 s exposures for each concentration
Sample configuration A 1 mm sample was placed between two mica windows in a
Software employed for SAXS data reduction, analysis and interpretation
SAS data reduction Subtraction using established programs at SIBYLS beamline 12.3.1
Basic analyses and merging of curves. PRIMUS from ATSAS 2.4.2
Shape/bead modeling GASBOR 2.3i

[2] = molecular target: T1, 53BP1^TT-CC (E1549C/E1567C) (Homo sapiens, UniProt Q12888, E1549C/E1567C); assay: 1H-15N HSQC NMR of 15N-labeled 53BP1TT-CC with UNC3474, with and without DTT; format: binding
T1 construct: The tandem Tudor domain of 53BP1 (53BP1^TT, residues 1481–1603) was purified as previously described; made in house
T1 sequence (Q12888 1481-1603 E1549C/E1567C): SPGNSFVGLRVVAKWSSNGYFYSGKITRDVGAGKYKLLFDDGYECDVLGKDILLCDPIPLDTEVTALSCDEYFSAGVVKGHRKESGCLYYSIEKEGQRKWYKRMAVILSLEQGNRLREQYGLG
Experimental: Fig. 4 Engineering of a disulfide-crosslinked 53BP1^TT homodimer that binds UNC3474. a Sedimentation velocity analysis of 53BP1^TT-CC (20 μM) in the presence and absence of 10 mM DTT. b Crystal structure of 53BP1^TT-CC (blue and orange) showing the two disulfide bridges overlaid to the crystal structure of 53BP1^TT-UNC3474 (UNC3474 omitted) in gray. c Effects of adding 2 mM DTT and UNC3474 on the ^1H-^15N HSQC spectrum of ^15N-labeled 53BP1^TT-CC (1:1 UNC3474:53BP1^TT-CC molar ratio).
All NMR data were collected at 25 °C on a 700 MHz Bruker Avance III spectrometer equipped with a cryoprobe. Data were processed and analyzed with NMRPipe[54] and NMRViewJ[55],[56].

[3] = tested on: WT 53BP1^FFR IRIF in U2OS cells; assay: 53BP1FFR ionizing radiation-induced foci (IRIF) formation, immunofluorescence, WT; format: cell-based, Homo Sapiens; conditions: 1 Gy X-ray, different concentrations of UNC3474
Text: as §1, §2

## CC(C)c1cccc(C(=O)NCCCNC(C)(C)C)c1 [UNC3474]
[1]
  53BP1FFR-CC IRIF: no significant change
53BP1^TT WT; 10-fold molar excess of ligand, free 53BP1TT 18.85 ± 0.069
  Rg, P(r) analysis, of 53BP1TT complex: 20.18 ± 0.038 Å
53BP1^TT WT; 10-fold molar excess of ligand, free 53BP1TT 19.1 ± 0.2
  Rg, Guinier analysis, of 53BP1TT complex: 20.1 ± 0.1 Å
53BP1^TT WT; 10-fold molar excess of ligand, free 53BP1TT 62.5
  dmax, P(r) analysis, of 53BP1TT complex: 69.4 Å
53BP1^TT WT; 10-fold molar excess of ligand, free 53BP1TT 21822
  Porod volume of 53BP1TT complex: 37692 Å3
53BP1^TT WT; 10-fold molar excess of small molecule, 10 °C
  changes in SAXS data upon complex formation: agreed well with 53BP1^TT homodimerization
[2]; with DTT (2 mM)
  affinity of reduced monomeric 53BP1TT-CC: no affinity
[2]; without DTT, 1:1 UNC3474:53BP1TT-CC molar ratio
  effect on 1H-15N HSQC spectra of 53BP1TT-CC (disulfide-crosslinked dimer): splitting of several NMR signals
[3]
  WT 53BP1FFR IRIF formation: inhibited in a dose-dependent manner
